Data as given in patent US20240116985A1, “STAPLED PEPTIDES AND METHODS THEREOF” (priority 2020, published 2024).

Molecular target: T1, full-length beta-Catenin (Uniprot ID P35222) (Homo sapiens, UniProt P35222)
T1 construct: 10 nM full-length beta-Catenin (Uniprot ID P35222)
T1 sequence (P35222 1-781): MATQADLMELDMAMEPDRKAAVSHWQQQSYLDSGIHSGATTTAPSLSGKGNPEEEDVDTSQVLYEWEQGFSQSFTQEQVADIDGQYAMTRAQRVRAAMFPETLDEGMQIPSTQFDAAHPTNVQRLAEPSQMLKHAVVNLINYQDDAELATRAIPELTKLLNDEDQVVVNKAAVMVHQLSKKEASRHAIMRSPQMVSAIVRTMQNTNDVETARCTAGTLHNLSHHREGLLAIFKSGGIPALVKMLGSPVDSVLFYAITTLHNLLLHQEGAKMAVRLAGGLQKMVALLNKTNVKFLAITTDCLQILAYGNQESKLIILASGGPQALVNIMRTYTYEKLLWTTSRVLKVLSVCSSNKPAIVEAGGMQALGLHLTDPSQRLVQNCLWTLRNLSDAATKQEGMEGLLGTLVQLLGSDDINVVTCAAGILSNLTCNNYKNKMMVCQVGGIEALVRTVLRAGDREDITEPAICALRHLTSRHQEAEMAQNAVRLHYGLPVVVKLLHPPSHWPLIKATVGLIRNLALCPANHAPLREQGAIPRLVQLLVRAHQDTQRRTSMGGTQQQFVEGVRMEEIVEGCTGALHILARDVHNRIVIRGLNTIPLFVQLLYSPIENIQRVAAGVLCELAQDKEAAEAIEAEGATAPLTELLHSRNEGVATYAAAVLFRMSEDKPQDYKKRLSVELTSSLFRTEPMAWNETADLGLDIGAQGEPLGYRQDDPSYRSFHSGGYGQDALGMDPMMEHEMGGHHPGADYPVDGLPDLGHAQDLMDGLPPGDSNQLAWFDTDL
Assay: Fluorescence polarization IC50 (beta-catenin / 5FAM-TCF4 10-53 competition)
Type: binding
Settings: fluorescence polarization; read-out: beta-Catenin FP IC50
In the case of `CC(=O)N1CCC[C@]12CC1OC1CCCC1(CCCC=CCCCOC(=O)N3CC[C@@](C(=O)N[C@@H](Cc4ccsc4)C(=O)N[C@@H](Cc4csc5ccccc45)C(=O)N[C@@H](CCC(N)=O)C(N)=O)(C3)NC(=O)[C@H](CC(C)C)NC(=O)[C@H](Cc3ccccc3)NC(=O)[C@H](C)NC(=O)[C@H](C)NC(=O)[C@H](CN(CC(=O)O)CC(F)(F)F)NC(=O)[C@H](CC(=O)O)NC1=O)NC(=O)[C@H](CC(C)(C)C)NC(=O)[C@H](CC(=O)O)NC2=O` (stereo partly drawn) [I-2595, Ac-PL3-Asp-Npg-B5-Asp-TfeGA-Ala-Ala-Phe-Leu-PyrS2-3Thi-BztA-Gln-NH2], the IC50 is reported as 356 nM. `CC(C)C[C@H](NC(=O)[C@]12CCN(C1)C(=O)OCCCC=CCCCC1(CCCC=CCCC(=O)N3CCC[C@@]3(C)C(=O)N[C@@H](CC(=O)O)C(=O)N1)C(=O)N[C@@H](C)C(=O)N[C@@H](CC(=O)O)C(=O)N[C@@H](CC(=O)O)C(=O)N[C@@H](C)C(=O)N[C@@H](C)C(=O)N[C@@H](Cc1ccccc1)C(=O)N2)C(=O)N[C@@H](Cc1ccsc1)C(=O)N[C@@H](Cc1csc2ccccc12)C(=O)N[C@@H](CCC(N)=O)C(N)=O` (stereo partly drawn) [I-2599, 4pentenyl-MePro-Asp-B5-Ala-Asp-Asp-Ala-Ala-Phe-PyrS2-Leu-3Thi-BztA-Gln-NH2] gave an IC50 of 234 nM.

Molecular target: T2, beta-catenin/TCF4 engagement (Homo sapiens, UniProt P35222)
T2 construct: expressed in transfected cells; host or cells: HEK293
T2 sequence (P35222 1-781): T1 sequence (P35222 1-781)
Assay: Nano-BRET target engagement assay (B-cat-Halo & TCF4-Luc in HEK293 cells)
Type: cell-based
Settings: read-out: NanoBRET Abs IC50
In the case of `CC(=O)N1CCC[C@]12CC1OC1CCCC1(CCCC=CCCCOC(=O)N3CC[C@@](C(=O)N[C@@H](Cc4ccsc4)C(=O)N[C@@H](Cc4csc5ccccc45)C(=O)N[C@@H](CCC(N)=O)C(N)=O)(C3)NC(=O)[C@H](CC(C)C)NC(=O)[C@H](Cc3ccccc3)NC(=O)[C@H](C)NC(=O)[C@H](C)NC(=O)[C@H](CN(CC(=O)O)CC(F)(F)F)NC(=O)[C@H](CC(=O)O)NC1=O)NC(=O)[C@H](CC(C)(C)C)NC(=O)[C@H](CC(=O)O)NC2=O` (stereo partly drawn) [I-2595, Ac-PL3-Asp-Npg-B5-Asp-TfeGA-Ala-Ala-Phe-Leu-PyrS2-3Thi-BztA-Gln-NH2], the IC50 is reported as > 20000 nM. With `CC(C)C[C@H](NC(=O)[C@]12CCN(C1)C(=O)OCCCC=CCCCC1(CCCC=CCCC(=O)N3CCC[C@@]3(C)C(=O)N[C@@H](CC(=O)O)C(=O)N1)C(=O)N[C@@H](C)C(=O)N[C@@H](CC(=O)O)C(=O)N[C@@H](CC(=O)O)C(=O)N[C@@H](C)C(=O)N[C@@H](C)C(=O)N[C@@H](Cc1ccccc1)C(=O)N2)C(=O)N[C@@H](Cc1ccsc1)C(=O)N[C@@H](Cc1csc2ccccc12)C(=O)N[C@@H](CCC(N)=O)C(N)=O` (stereo partly drawn) [I-2599, 4pentenyl-MePro-Asp-B5-Ala-Asp-Asp-Ala-Ala-Phe-PyrS2-Leu-3Thi-BztA-Gln-NH2] the IC50 was > 20000 nM.

System: not listed separately
Assay: CHI Log D procedure
Type: physicochemical
Settings: pH 7.4
With `CC(=O)N[C@@H](Cc1ccccc1)C(=O)N[C@@H](CC(=O)O)C(=O)N[C@@H](C)C(=O)N[C@]1(C)CCN(C)C(=O)OCC=CCCCCC[C@@](C)(C(=O)N[C@@H](Cc2ccccc2)C(=O)N[C@@H](Cc2c[nH]c3ccccc23)C(=O)N[C@@H](CCC(N)=O)C(N)=O)NC(=O)[C@H](C(C)C)NC(=O)[C@H](Cc2ccccc2)NC(=O)[C@H](C)NC(=O)[C@H](C)NC(=O)[C@H](CC(=O)O)NC(=O)[C@H](CC(=O)O)NC1=O` (single isomer, unassigned) [I-2, Ac-Phe-Asp-Ala-RdN-Asp-Asp-Ala-Ala-Phe-Val-S7-Phe-Trp-Gln-NH2] the “CHI Log D” value was 1.246. For `CC(=O)N[C@@H](Cc1ccccc1)C(=O)N[C@@H](CC(=O)O)C(=O)N[C@@H](C)C(=O)N[C@]1(C)CCCCCCC=CCOC(=O)N2CC[C@@](C(=O)N[C@@H](Cc3ccccc3)C(=O)N[C@@H](Cc3c[nH]c4ccccc34)C(=O)N[C@@H](CCC(N)=O)C(N)=O)(C2)NC(=O)[C@H](C(C)C)NC(=O)[C@H](Cc2ccccc2)NC(=O)[C@H](C)NC(=O)[C@H](C)NC(=O)[C@H](Cc2ccc(C(=O)O)cc2)NC(=O)[C@H](CC(=O)O)NC1=O` (single isomer, unassigned) [I-8, Ac-Phe-Asp-Ala-R8-Asp-4COOHF-Ala-Ala-Phe-Val-PyrS-Phe-Trp-Gln-NH2], the “CHI Log D” value was 1.349. With `CC(=O)N[C@@H](Cc1ccccc1)C(=O)N[C@@H](CC(=O)O)C(=O)N[C@@H](C)C(=O)N[C@]1(C)CCCCCCC=CCOC(=O)N2CC[C@@](C(=O)N[C@@H](Cc3ccccc3)C(=O)N[C@@H](Cc3c[nH]c4ccccc34)C(=O)N[C@@H](CCC(N)=O)C(N)=O)(C2)NC(=O)[C@H](C(C)C)NC(=O)[C@H](Cc2ccccc2)NC(=O)[C@H](C)NC(=O)[C@H](C)NC(=O)[C@H](Cc2cccnc2)NC(=O)[C@H](CC(=O)O)NC1=O` (single isomer, unassigned) [I-10, Ac-Phe-Asp-Ala-R8-Asp-3PyrA-Ala-Ala-Phe-Val-PyrS-Phe-Trp-Gln-NH2] the “CHI Log D” value was 1.661. For `CC(=O)N[C@@H](Cc1ccccc1)C(=O)N[C@@H](CC(=O)O)C(=O)N[C@@H](C)C(=O)N[C@]1(C)CCCCCCC=CCOC(=O)N2CC[C@@](C(=O)N[C@@H](Cc3ccccc3)C(=O)N[C@@H](Cc3c[nH]c4ccccc34)C(=O)N[C@@H](CCC(N)=O)C(N)=O)(C2)NC(=O)[C@H](C(C)C)NC(=O)[C@H](Cc2ccccc2)NC(=O)[C@H](C)NC(=O)[C@H](C)NC(=O)[C@H](Cc2ccc(-c3ccccc3)cc2)NC(=O)[C@H](CC(=O)O)NC1=O` (single isomer, unassigned) [I-12, Ac-Phe-Asp-Ala-R8-Asp-Bip-Ala-Ala-Phe-Val-PyrS-Phe-Trp-Gln-NH2], the “CHI Log D” value was 2.247.

Same assay, conditions: pH 7.4, CHI Log D
With `CC(=O)N[C@@H](Cc1ccccc1)C(=O)N[C@@H](CC(=O)O)C(=O)N[C@@H](C)C(=O)N[C@]1(C)CCN(C)C(=O)OCC=CCCCCC[C@@](C)(C(=O)N[C@@H](Cc2ccccc2)C(=O)N[C@@H](Cc2c[nH]c3ccccc23)C(=O)N[C@@H](CCC(N)=O)C(N)=O)NC(=O)[C@H](C(C)C)NC(=O)[C@H](Cc2ccccc2)NC(=O)[C@H](C)NC(=O)[C@H](C)NC(=O)[C@H](CC(=O)O)NC(=O)[C@H](CC(=O)O)NC1=O` (single isomer, unassigned) [I-1, Ac-Phe-Asp-Ala-RdN-Asp-Asp-Ala-Ala-Phe-Val-S7-Phe-Trp-Gln-NH2] the chromatographic logD was 1.27. In the case of `CC(=O)N[C@@H](Cc1ccccc1)C(=O)N[C@@H](CC(=O)O)C(=O)N[C@@H](C)C(=O)N[C@]1(C)CCCCCCC=CCOC(=O)N2CC[C@@](C(=O)N[C@@H](Cc3ccccc3)C(=O)N[C@@H](Cc3c[nH]c4ccccc34)C(=O)N[C@@H](CCC(N)=O)C(N)=O)(C2)NC(=O)[C@H](C(C)C)NC(=O)[C@H](Cc2ccccc2)NC(=O)[C@H](C)NC(=O)[C@H](C)NC(=O)[C@H](CCCC(=O)O)NC(=O)[C@H](CC(=O)O)NC1=O` (single isomer, unassigned) [I-5, Ac-Phe-Asp-Ala-R8-Asp-Aad-Ala-Ala-Phe-Val-PyrS-Phe-Trp-Gln-NH2], the chromatographic logD is reported as 1.33. With `CC(=O)N[C@@H](Cc1ccccc1)C(=O)N[C@@H](CC(=O)O)C(=O)N[C@@H](C)C(=O)N[C@]1(C)CCCCCCC=CCOC(=O)N2CC[C@@](C(=O)N[C@@H](Cc3ccccc3)C(=O)N[C@@H](Cc3c[nH]c4ccccc34)C(=O)N[C@@H](CCC(N)=O)C(N)=O)(C2)NC(=O)[C@H](C(C)C)NC(=O)[C@H](Cc2ccccc2)NC(=O)[C@H](C)NC(=O)[C@H](C)NC(=O)[C@H](Cc2ccc(C(=O)O)cc2)NC(=O)[C@H](CC(=O)O)NC1=O` (single isomer, unassigned) [I-7, Ac-Phe-Asp-Ala-R8-Asp-4COOHF-Ala-Ala-Phe-Val-PyrS-Phe-Trp-Gln-NH2] the chromatographic logD was 1.32. With `CC(=O)N[C@@H](Cc1ccccc1)C(=O)N[C@@H](CC(=O)O)C(=O)N[C@@H](C)C(=O)N[C@]1(C)CCCCCCC=CCOC(=O)N2CC[C@@](C(=O)N[C@@H](Cc3ccccc3)C(=O)N[C@@H](Cc3c[nH]c4ccccc34)C(=O)N[C@@H](CCC(N)=O)C(N)=O)(C2)NC(=O)[C@H](C(C)C)NC(=O)[C@H](Cc2ccccc2)NC(=O)[C@H](C)NC(=O)[C@H](C)NC(=O)[C@H](Cc2cccnc2)NC(=O)[C@H](CC(=O)O)NC1=O` (single isomer, unassigned) [I-9, Ac-Phe-Asp-Ala-R8-Asp-3PyrA-Ala-Ala-Phe-Val-PyrS-Phe-Trp-Gln-NH2] the chromatographic logD was 1.65. `CC(=O)N[C@@H](Cc1ccccc1)C(=O)N[C@@H](CC(=O)O)C(=O)N[C@@H](C)C(=O)N[C@]1(C)CCCCCCC=CCOC(=O)N2CC[C@@](C(=O)N[C@@H](Cc3ccccc3)C(=O)N[C@@H](Cc3c[nH]c4ccccc34)C(=O)N[C@@H](CCC(N)=O)C(N)=O)(C2)NC(=O)[C@H](C(C)C)NC(=O)[C@H](Cc2ccccc2)NC(=O)[C@H](C)NC(=O)[C@H](C)NC(=O)[C@H](Cc2ccc(-c3ccccc3)cc2)NC(=O)[C@H](CC(=O)O)NC1=O` (single isomer, unassigned) [I-11, Ac-Phe-Asp-Ala-R8-Asp-Bip-Ala-Ala-Phe-Val-PyrS-Phe-Trp-Gln-NH2] showed a chromatographic logD of 2.27. With `CCCC[C@@H]1NC(=O)[C@H](CC(=O)O)NC(=O)[C@](C)(NC(=O)[C@H](C)NC(=O)[C@H](CC(=O)O)NC(=O)[C@H](Cc2ccccc2)NC(C)=O)CCCCCCC=CCOC(=O)N2CC[C@@](C(=O)N[C@@H](Cc3ccccc3)C(=O)N[C@@H](Cc3c[nH]c4ccccc34)C(=O)N[C@@H](CCC(N)=O)C(N)=O)(C2)NC(=O)[C@H](C(C)C)NC(=O)[C@H](Cc2ccccc2)NC(=O)[C@H](C)NC(=O)[C@H](C)NC1=O` (single isomer, unassigned) [I-13, Ac-Phe-Asp-Ala-R8-Asp-nLeu-Ala-Ala-Phe-Val-PyrS-Phe-Trp-Gln-NH2] the chromatographic logD was 2.01. `CC(=O)N[C@@H](Cc1ccccc1)C(=O)N[C@@H](CC(=O)O)C(=O)N[C@@H](C)C(=O)N[C@]1(C)CCCCCCC=CCOC(=O)N2CC[C@@](C(=O)N[C@@H](Cc3ccccc3)C(=O)N[C@@H](Cc3c[nH]c4ccccc34)C(=O)N[C@@H](CCC(N)=O)C(N)=O)(C2)NC(=O)[C@H](C(C)C)NC(=O)[C@H](Cc2ccccc2)NC(=O)[C@H](C)NC(=O)[C@H](C)NC(=O)[C@H](CC2CCCCC2)NC(=O)[C@H](CC(=O)O)NC1=O` (single isomer, unassigned) [I-15, Ac-Phe-Asp-Ala-R8-Asp-Cha-Ala-Ala-Phe-Val-PyrS-Phe-Trp-Gln-NH2] gave a chromatographic logD of 2.21.
